In patent US20130157258A1, “HCV NS5B PROTEASE MUTANTS” (VERTEX PHARMACEUTICALS INCORPORATED, priority 2010, published 2013):
Entries after “also recorded” stand apart in the source; their conditions may differ.

Experiments:
[1] = system: HCV NS5B variants (L419C/M/P/S/V, R422K, M423I/T/V, I482L/N/T, A486I/V, V494A); experiment: Phenotypic analysis of substitutions selected in patients during dosing, replicon system; assay type: cell-based
Method: (§1) Treatment-naïve HCV genotype 1 patients (n=32) were randomized to receive VX-222 at doses of 250 mg BID, 500 mg BID, 750 mg BID, or 1500 mg QD for 3 days, in a treatment:placebo ratio of 6:2 (8 patients/cohort). Pegylated interferon (Peg-IFN) and ribavirin (RBV) for 48 weeks was offered to patients at the end of the study. Sequencing of NS5B was performed at baseline (Day 1), end of dosing (Day 3), and at follow-up timepoints (Days 4, 5, 10, 20, and 60). Phenotypic data (fold change in IC50 from wildtype) of substitutions selected in patients during dosing was determined using a replicon system.

HCV genotype 1 = experiment: Phase Ib/IIa multicenter, randomized, dose-ascending study, 3 days of dosing; assay type: in vivo, human
Method: VX-222 is a non-nucleoside hepatitis C virus (HCV) NS5B polymerase inhibitor with potent in vitro activity. Safety, antiviral activity, and viral sequences were assessed in a phase Ib/IIa multicenter, randomized, dose-ascending study in genotype 1, HCV-infected patients.
as §1

[2] = system: HCV NS5B substitution at position 494 (V494A); experiment: Phenotypic analysis in replicon system, substitution at position 494; assay type: cell-based
Method: as §1

[3] = system: HCV NS5B substitution at position 423 (M423I/T/V); experiment: Phenotypic analysis in replicon system, substitution at position 423; assay type: cell-based
Method: as §1

[4] = system: HCV NS5B substitution at position 482 (I482L/N/T); experiment: Phenotypic analysis in replicon system, substitution at position 482; assay type: cell-based
Method: as §1

[5] = system: HCV NS5B substitution at position 419 (L419C/M/P/S/V); experiment: Phenotypic analysis in replicon system, substitution at position 419; assay type: cell-based
Method: as §1

[6] = system: HCV NS5B substitution at position 486 (A486I/V); experiment: Phenotypic analysis in replicon system, substitution at position 486; assay type: cell-based
Method: as §1

[7] = system: HCV NS5B substitution at position 422 (R422K); experiment: Phenotypic analysis in replicon system, substitution at position 422; assay type: cell-based
Method: as §1

L419M HCV replicon = experiment: HCV replicon cell assay, real-time PCR, L419M; assay type: cell-based, HCV genotype 1b
Source text: (§2) All mutations were introduced into the pFKI389/NS3-3′/adapt vector (Krieger et al., J. Virol., 75, 4614-4624 (2001); Lohmann et al., J. Virol., 77, 3007-3019 (2003)) by PCR-based site-directed mutagenesis and standard recombinant DNA technologies. The pFKI389/NS3-3′/adapt vector is a “cell culture adapted HCV replicon” containing a R465G mutation within the NS5B gene, and was obtained from Reblikon GmbH, Gau-Odernheim, Germany. The “cell culture adapted replicon” was chosen instead of the wild-type replicon because the R465G mutation was found in all of the progeny RNA isolated from 9.13 replicon cells used in drug susceptibility studies to compare the fold shift in IC50s (described further below). The adaptive R465G mutation in the NS5B region was previously reported (Krieger et al., supra) and found to be very efficient in generating replicon cell colonies after RNA transfection into Huh-7 cells. […]
(§3) The 9.13 replicon cells and the stable recombinant replicon cells were seeded in a 12-well culture dish at a density of 3×10^4 cells/well in a volume of 1 mL. […] The inhibitory effect of agents against wild-type replicon cells, resistant colonies, or recombinant replicon cells was determined by monitoring the levels of HCV RNA, normalized to cellular 18S ribosomal RNA, by real time PCR using the ABI PRISM® 7700 Sequence Detection System (Applied Biosystems, Foster City, Calif., USA). […]

L419S HCV replicon = experiment: HCV replicon cell assay, real-time PCR, L419S resistant colony; assay type: cell-based; details: Hepatitis C virus, 96 h
Method: The 9.13 replicon cells and the stable recombinant replicon cells were seeded in a 12-well culture dish at a density of 3×10^4 cells/well in a volume of 1 mL. The cell culture media used for the assay was DMEM supplemented with 10% fetal bovine serum, 100 IU/mL of penicillin, 100 μg/mL streptomycin, non-essential amino acids, 2 mM glutamine and 10 mM HEPES. After incubating for 3-4 hours, candidate agents (drugs) were added at various concentrations for a final volume of 2 mL of the same culture media. Cells were incubated for 4 days at 37° C. with 5% CO2. Thereafter, total RNA (cellular and viral origin) was extracted using the RNeasy kit (Qiagen Inc.) according to the manufacturer's protocol. cDNA synthesis was performed using the MMLV reverse transcriptase and random hexamer primer (Invitrogen). The inhibitory effect of agents against wild-type replicon cells, resistant colonies, or recombinant replicon cells was determined by monitoring the levels of HCV RNA, normalized to cellular 18S ribosomal RNA, by real time PCR using the ABI PRISM® 7700 Sequence Detection System (Applied Biosystems, Foster City, Calif., USA). […]
(§4) Media and drugs were replaced twice a week over the course of the experiment. Three to four weeks following the initial plating, resistant clones of cells (colonies) were counted and randomly picked for culture or for direct RNA extraction. […]

M423T HCV replicon = experiment: HCV replicon cell assay, real-time PCR, M423T; assay type: cell-based, HCV genotype 1b
Source text: as §2, §3

M423V HCV replicon = experiment: HCV replicon cell assay, real-time PCR, M423V; assay type: cell-based, HCV genotype 1b
Source text: as §2, §3

M423I HCV replicon = experiment: HCV replicon cell assay, real-time PCR, M423I; assay type: cell-based, HCV genotype 1b
Source text: as §2, §3

I482L HCV replicon = experiment: HCV replicon cell assay, real-time PCR, I482L; assay type: cell-based, HCV genotype 1b
Source text: as §2, §3

A486V HCV replicon = experiment: HCV replicon cell assay, real-time PCR, A486V; assay type: cell-based, HCV genotype 1b
Source text: as §2, §3

V494A HCV replicon = experiment: HCV replicon cell assay, real-time PCR, V494A; assay type: cell-based, HCV genotype 1b
Source text: as §2, §3

[8] = system: recombinant mutant replicons (L419M, M423V, M423T, M423I, I482L, A486V, V494A); experiment: HCV replicon cell assay, real-time PCR, all seven recombinant mutant replicons; assay type: cell-based, HCV genotype 1b
Source text: as §2, §3

[9] = system: genotype 1b replicon cells (9.13 replicon cells); experiment: Selection of drug-resistant HCV replicon colonies under G418; assay type: cell-based, HCV genotype 1b
Source text: Drug-resistant HCV replicons were selected as previously described. (See, e.g., Amparo et al., 46th Conference on Antimicrobial Agents and Chemotherapy (ICAAC). 2006, Abstract 1273; Le Pogam et al., J. Virol., 80(12), 6146-54 (2006); Lin et al., J. Biol. Chem., 279(17), 17508-17514 (2004); Lu et al., Antimicrob. Agents Chemother., 48(6), 2260-2266 (2004); Trozzi et al., J. Virol., 77, 3669-3679 (2003)). Briefly, approximately 2.5×10^4 genotype 1a replicon cells (W11.8 replicon cells at passage 13) or genotype 1b replicon cells (9.13 replicon cells at passage greater than 100) were plated in 75 cm^2 cell culture flasks (Falcon 353136) in complete culture medium with high concentration of G418 (600 μg/mL). […]
as §4
Mutant replicons resistant to specific inhibitors were made using replicon constructs expressing the neomycin phosphotransferase gene (NPT). […] Cells containing mutant replicons with decreased sensitivity to an inhibitor give rise to colonies that can be counted, isolated, expanded and characterized.

[10] = 250-750 mg BID or 1500 mg QD for 3 days, patients
[11] = Hepatitis C virus, 96 h, 4 days, HCV RNA by real time PCR

With `NC(=O)c1ncn([C@@H]2O[C@H](CO)[C@@H](O)[C@H]2O)n1` [RBV, ribavirin] the “sensitivity of VX-222-selected variants to the agent” value ([1]; in vitro) was “did not have reduced sensitivity; also recorded: remained sensitive”.

For `CC1CCC(C(=O)N(c2cc(C#CC(C)(C)C)sc2C(=O)O)C2CCC(O)CC2)CC1` (stereo not drawn) [VX-222], the “mean HCV RNA decline” value (HCV genotype 1; 250 mg (BID), after three days of dosing, treatment-naive genotype 1 patients) was 3.1 log 10, the “mean HCV RNA decline” value (HCV genotype 1; 500 mg (BID), after three days of dosing, treatment-naive genotype 1 patients) was 3.4 log 10 and the “mean HCV RNA decline” value (HCV genotype 1; 750 mg (BID), after three days of dosing, treatment-naive genotype 1 patients) was 3.2 log 10. For the same compound, the “mean HCV RNA decline” value (HCV genotype 1; 1500 mg (QD), after three days of dosing, treatment-naive genotype 1 patients) was 3.4 log 10, the “most common reported adverse effects (AEs)” value (HCV genotype 1; [10]) was “diarrhea, headache, nausea, fatigue and fever” and the “severity of the majority of AEs” value (HCV genotype 1; [10]) was “mild in severity”. For the same compound, the “mean HCV RNA decline” value (HCV genotype 1; all four dose groups) was “greater than 3 log 10”, the “fold change in IC50 from wildtype” value ([1]; range over all variants selected in patients) was 6-80 fold and the “fold change in IC50 from wildtype” value [2] was “six”. The “fold change in IC50 from wildtype” value [3] was “seven to ten”, the “fold change in IC50 from wildtype” value [4] was about 26 fold and the “fold change in IC50 from wildtype” value [5] was 20-80 fold. The “fold change in IC50 from wildtype” value [6] was about 50 fold, the “fold change in IC50 from wildtype” value [7] was about 74 fold and the “IC50 Fold-Change vs Wild-Type Replicon” value (L419M HCV replicon) was 80 fold and ≈80 fold. For the same compound, the IC50 (L419M HCV replicon; [11]) was 900 nM, the IC50 (L419S HCV replicon) was over 2000 nM and the “IC50 Fold-Change vs Wild-Type Replicon” value (M423T HCV replicon) was 29 fold and ≈29 fold. The IC50 (M423T HCV replicon; [11]) was 319 nM, the “IC50 Fold-Change vs Wild-Type Replicon” value (M423V HCV replicon) was 10 fold and ≈10 fold and the IC50 (M423V HCV replicon; [11]) was 110 nM. For the same compound, the “IC50 Fold-Change vs Wild-Type Replicon” value (M423I HCV replicon) was 7.1 fold and ≈7.1 fold, the IC50 (M423I HCV replicon; [11]) was 77.2 nM and the “IC50 Fold-Change vs Wild-Type Replicon” value (I482L HCV replicon) was “≈26 fold”. The IC50 (I482L HCV replicon; [11]) was 290 nM, the “IC50 Fold-Change vs Wild-Type Replicon” value (A486V HCV replicon) was 50 fold and ≈50 fold and the IC50 (A486V HCV replicon; [11]) was 843 nM. The “IC50 Fold-Change vs Wild-Type Replicon” value (V494A HCV replicon) was “≈5.9 fold”, the IC50 (V494A HCV replicon; [11]) was 132 nM and the “fold increase of IC50 vs wild-type replicon cells” value [8] was 6- to 80 fold. For the same compound, the resistant colony formation ([9]; VX-222 concentration of about 300 fold of the IC50, G418 selection) was “No colony could be readily detected” and the “frequency of resistant clones” value ([9]; equivalent IC50-fold concentration of VX-222, genotype 1b vs genotype 1a replicon cell line, not side by side) was “higher for the genotype 1b replicon cell line than for the genotype 1a replicon cell line”.
